From patent US9695155B2, “Herbicidal substituted pyrimidinyloxy benzene compounds” (E. I. DU PONT DE NEMOURS AND COMPANY, priority 2013, dated 2017)

Experiments:
bromegrass, downy = experiment: Test C preemergence; format: in vivo, Bromus tectorum; conditions: for Bromegrass, Downy plant response rating: preemergence, scale 0 (no effect) to 100 (complete control)
Description: (§1) Seeds of plant species selected from blackgrass (Alopecurus myosuroides), Italian ryegrass (Lolium multiflorum), wheat, winter (winter wheat, Triticum aestivum), galium (catchweed bedstraw, Galium aparine), corn (Zea mays), large (Lg) crabgrass (Digitaria sanguinalis), giant foxtail (Setaria faberii), johnsongrass (Sorghum halepense), lambsquarters (Chenopodium album), morningglory (Ipomoea coccinea), yellow nutsedge (Cyperus esculentus), pigweed (Amaranthus retroflexus), ragweed (common ragweed, Ambrosia elatior), soybean (Glycine max), barnyardgrass (Echinochloa crus-galli), oilseed rape (Brassica napus), waterhemp (common waterhemp, Amaranthus rudis), kochia (Kochia scoparia), wild oat (Avena fatua), surinam grass (Brachiaria decumbens), foxtail, green (green foxtail, Setaria viridis), goosegrass (Eleusine indica), bromegrass, downy (downy bromegrass, Bromus tectorum), nightshade (eastern black nightshade, Solanum ptycanthum), cocklebur (common cocklebur, Xanthium strumarium), cupgrass, woolly (woolly cupgrass, Eriochloa villosa), bermudagrass (Cynodon dactylon), sunflower, (common oilseed sunflower, Helianthus annuus), Russian thistle (Salsola kali), and velvetleaf (Abutilon theophrasti) were planted into a blend of loam soil and sand and treated preemergence with test chemicals formulated in a non-phytotoxic solvent mixture which included a surfactant.
(§2) At the same time, plants selected from these crop and weed species and also barley, winter (winter barley, Hordeum vulgare), windgrass (Apera spica-venti), chickweed (common chickweed, Stellaria media), deadnettle (henbit deadnettle, Lamium amplexicaule), and canarygrass (littleseed canarygrass, Phalaris minor) were planted in pots containing Redi-Earth® planting medium (Scotts Company, 14111 Scottslawn Road, Marysville, Ohio 43041) comprising spaghnum peat moss, vermiculite, wetting agent and starter nutrients and treated with postemergence applications of test chemicals formulated in the same manner. Plants ranged in height from 2 to 18 cm (1- to 4-leaf stage) for postemergence treatments. Treated plants and controls were maintained in a greenhouse for 13 to 15 days, after which time all species were compared to controls and visually evaluated. Plant response ratings, summarized in Table C, are based on a scale of 0 to 100 where 0 is no effect and 100 is complete control. A dash (-) response means no test result.

windgrass = experiment: Test C postemergence; format: in vivo, Apera spica-venti; conditions: for Plant response rating (0 to 100), Windgrass: postemergence; for Plant response rating, Windgrass: Postemergence, scale 0 to 100 (0 no effect, 100 complete control)
Description: as §1, §2

[1] = test system: waterhemp_RES1 (ALS & Triazine resistant common waterhemp); experiment: Test E postemergence; format: in vivo, Amaranthus rudis
Summary of the method: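 Compound in a non-phytotoxic solvent mixture with surfactant was applied preemergence to seeds in silt loam soil, or postemergence to plants 2 to 18 cm tall grown in peat-based potting medium. Plants were kept in a greenhouse for 14 to 21 days, then rated visually against untreated controls on a 0 (no effect) to 100 (complete control) scale.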

surinam grass = experiment: Test C preemergence; format: in vivo, Brachiaria decumbens; conditions: for Surinam Grass plant response rating: preemergence, scale 0 (no effect) to 100 (complete control)
Description: as §1, §2

wild oat = experiment: Test C preemergence; format: in vivo, Avena fatua; conditions: for Oat, Wild plant response rating: preemergence, scale 0 (no effect) to 100 (complete control)
Description: as §1, §2

bermudagrass [2] = experiment: Test C preemergence; format: in vivo, Cynodon dactylon; conditions: for Bermudagrass plant response rating: preemergence, scale 0 (no effect) to 100 (complete control)
Description: as §1, §2

sunflower = experiment: Test C preemergence; format: in vivo, Helianthus annuus; conditions: for Sunflower plant response rating: preemergence, scale 0 (no effect) to 100 (complete control)
Description: as §1, §2

barley, winter = experiment: Test C postemergence; format: in vivo, Hordeum vulgare; conditions: for Plant response rating (0 to 100), Barley: postemergence; for Plant response rating, Barley: Postemergence, scale 0 to 100 (0 no effect, 100 complete control)
Description: as §1, §2

foxtail, green = experiment: Test C preemergence; format: in vivo, Setaria viridis; conditions: for Foxtail, Green plant response rating: preemergence, scale 0 (no effect) to 100 (complete control)
Description: as §1, §2

canarygrass = experiment: Test C postemergence; format: in vivo, Phalaris minor; conditions: for Plant response rating (0 to 100), Canarygrass: postemergence; for Plant response rating, Canarygrass: Postemergence, scale 0 to 100 (0 no effect, 100 complete control)
Summary of the method: (§3)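 Visual ratings on a 0–100 scale (100 = complete control) were made versus untreated controls after 13–15 greenhouse days. Chemicals in a surfactant-containing non-phytotoxic solvent were applied either preemergence to seeds in loam–sand soil or postemergence to 1- to 4-leaf plants 2–18 cm tall.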

cupgrass, woolly = experiment: Test C preemergence; format: in vivo, Eriochloa villosa; conditions: for Cupgrass, Woolly plant response rating: preemergence, scale 0 (no effect) to 100 (complete control)
Description: as §1, §2

bermudagrass [3] = experiment: Test C postemergence; format: in vivo, Cynodon dactylon; conditions: for Plant response rating (0 to 100), Bermudagrass: postemergence; for Plant response rating, Bermudagrass: Postemergence, scale 0 to 100 (0 no effect, 100 complete control)
Summary of the method: as §3

nightshade = experiment: Test C preemergence; format: in vivo, Solanum ptycanthum; conditions: for Nightshade plant response rating: preemergence, scale 0 (no effect) to 100 (complete control)
Description: as §1, §2

[4] = Preemergence, 31 g ai/ha, scale 0 to 100, 0 no effect, 100 complete control

Structure (SMILES): FC(F)(F)c1cnn(-c2ccccc2Oc2ncc(Cl)cn2)c1 [Compound 16]
- Bromegrass, Downy plant response rating (bromegrass, downy; 62 g ai/ha): 60
- Bromegrass, Downy plant response rating (bromegrass, downy; 125 g ai/ha): 90
- Bromegrass, Downy plant response rating (bromegrass, downy; 250 g ai/ha): 95
- Plant response rating, Bromegrass, Downy (bromegrass, downy; [4]): 30
- Plant response rating (0 to 100), Windgrass (windgrass; 125 g ai/ha): 50
- Plant response rating (0 to 100), Windgrass (windgrass; 250 g ai/ha): 50
- Plant response rating, Windgrass (windgrass; 31 g ai/ha, 13 to 15 days): 30
- Plant response rating, Windgrass (windgrass; 62 g ai/ha): 40
- Plant response rating, Waterhemp_RES1 ([1]; Postemergence, 31 g ai/ha, scale 0 to 100): 50
- Plant response rating, Waterhemp_RES1 ([1]; Postemergence, 62 g ai/ha, scale 0 to 100): 60
- Plant response rating, Waterhemp_RES1 ([1]; Postemergence, 125 g ai/ha, scale 0 to 100): 75
- Plant response rating, Waterhemp_RES1 ([1]; Postemergence, 250 g ai/ha, scale 0 to 100): 95
- Plant response rating, Waterhemp_RES1 ([1]; postemergence, 16 g ai/ha, scale 0 to 100, 0 no effect, 100 complete control): 50
- Surinam Grass plant response rating (surinam grass; 62 g ai/ha): 100
- Surinam Grass plant response rating (surinam grass; 125 g ai/ha): 100
- Surinam Grass plant response rating (surinam grass; 250 g ai/ha): 100
- Plant response rating, Surinam Grass (surinam grass; [4]): 25
- Oat, Wild plant response rating (wild oat; 62 g ai/ha): 90
- Oat, Wild plant response rating (wild oat; 125 g ai/ha): 90
- Oat, Wild plant response rating (wild oat; 250 g ai/ha): 90
- Plant response rating, Oat, Wild (wild oat; [4]): 50
- Bermudagrass plant response rating (bermudagrass [2]; 62 g ai/ha): 98
- Bermudagrass plant response rating (bermudagrass [2]; 125 g ai/ha): 98
- Bermudagrass plant response rating (bermudagrass [2]; 250 g ai/ha): 98
- Plant response rating, Bermudagrass (bermudagrass [2]; [4]): 95
- Sunflower plant response rating (sunflower; 62 g ai/ha): 0
- Sunflower plant response rating (sunflower; 125 g ai/ha): 0
- Sunflower plant response rating (sunflower; 250 g ai/ha): 0
- Plant response rating, Sunflower (sunflower; [4]): 0
- Plant response rating (0 to 100), Barley (barley, winter; 125 g ai/ha): 10
- Plant response rating (0 to 100), Barley (barley, winter; 250 g ai/ha): 35
- Plant response rating, Barley (barley, winter; 31 g ai/ha, 13 to 15 days): 0
- Plant response rating, Barley (barley, winter; 62 g ai/ha): 5
- Foxtail, Green plant response rating (foxtail, green; 62 g ai/ha): 90
- Foxtail, Green plant response rating (foxtail, green; 125 g ai/ha): 90
- Foxtail, Green plant response rating (foxtail, green; 250 g ai/ha): 90
- Plant response rating, Foxtail, Green (foxtail, green; [4]): 90
- Plant response rating (0 to 100), Canarygrass (canarygrass; 125 g ai/ha): 60
- Plant response rating (0 to 100), Canarygrass (canarygrass; 250 g ai/ha): 80
- Plant response rating, Canarygrass (canarygrass; 31 g ai/ha, 13 to 15 days): 10
- Plant response rating, Canarygrass (canarygrass; 62 g ai/ha): 30
- Cupgrass, Woolly plant response rating (cupgrass, woolly; 62 g ai/ha): 90
- Cupgrass, Woolly plant response rating (cupgrass, woolly; 125 g ai/ha): 98
- Cupgrass, Woolly plant response rating (cupgrass, woolly; 250 g ai/ha): 98
- Plant response rating, Cupgrass, Woolly (cupgrass, woolly; [4]): 75
- Plant response rating (0 to 100), Bermudagrass (bermudagrass [3]; 125 g ai/ha): 50
- Plant response rating (0 to 100), Bermudagrass (bermudagrass [3]; 250 g ai/ha): 55
- Plant response rating, Bermudagrass (bermudagrass [3]; 31 g ai/ha, 13 to 15 days): 10
- Plant response rating, Bermudagrass (bermudagrass [3]; 62 g ai/ha): 15
- Nightshade plant response rating (nightshade; 62 g ai/ha): 65
- Nightshade plant response rating (nightshade; 125 g ai/ha): 80
- Nightshade plant response rating (nightshade; 250 g ai/ha): 98
- Plant response rating, Nightshade (nightshade; [4]): 20
